Test results reported in ChEMBL document CHEMBL4130385, “Structure-function studies of BPP-BrachyNH2 and synthetic analogues thereof with Angiotensin I-Converting Enzyme” (Eur J Med Chem, 2017).

Columns and labels:
[1] = target: T1, Angiotensin-converting enzyme (Rattus norvegicus, UniProt P47820); assay: Inhibition of Wistar rat plasma angiotensin 1-converting enzyme using H-hippuryl-His-Leu-OH as substrate after 20 mins by fluorescence assay
T1 sequence (P47820 whole entry): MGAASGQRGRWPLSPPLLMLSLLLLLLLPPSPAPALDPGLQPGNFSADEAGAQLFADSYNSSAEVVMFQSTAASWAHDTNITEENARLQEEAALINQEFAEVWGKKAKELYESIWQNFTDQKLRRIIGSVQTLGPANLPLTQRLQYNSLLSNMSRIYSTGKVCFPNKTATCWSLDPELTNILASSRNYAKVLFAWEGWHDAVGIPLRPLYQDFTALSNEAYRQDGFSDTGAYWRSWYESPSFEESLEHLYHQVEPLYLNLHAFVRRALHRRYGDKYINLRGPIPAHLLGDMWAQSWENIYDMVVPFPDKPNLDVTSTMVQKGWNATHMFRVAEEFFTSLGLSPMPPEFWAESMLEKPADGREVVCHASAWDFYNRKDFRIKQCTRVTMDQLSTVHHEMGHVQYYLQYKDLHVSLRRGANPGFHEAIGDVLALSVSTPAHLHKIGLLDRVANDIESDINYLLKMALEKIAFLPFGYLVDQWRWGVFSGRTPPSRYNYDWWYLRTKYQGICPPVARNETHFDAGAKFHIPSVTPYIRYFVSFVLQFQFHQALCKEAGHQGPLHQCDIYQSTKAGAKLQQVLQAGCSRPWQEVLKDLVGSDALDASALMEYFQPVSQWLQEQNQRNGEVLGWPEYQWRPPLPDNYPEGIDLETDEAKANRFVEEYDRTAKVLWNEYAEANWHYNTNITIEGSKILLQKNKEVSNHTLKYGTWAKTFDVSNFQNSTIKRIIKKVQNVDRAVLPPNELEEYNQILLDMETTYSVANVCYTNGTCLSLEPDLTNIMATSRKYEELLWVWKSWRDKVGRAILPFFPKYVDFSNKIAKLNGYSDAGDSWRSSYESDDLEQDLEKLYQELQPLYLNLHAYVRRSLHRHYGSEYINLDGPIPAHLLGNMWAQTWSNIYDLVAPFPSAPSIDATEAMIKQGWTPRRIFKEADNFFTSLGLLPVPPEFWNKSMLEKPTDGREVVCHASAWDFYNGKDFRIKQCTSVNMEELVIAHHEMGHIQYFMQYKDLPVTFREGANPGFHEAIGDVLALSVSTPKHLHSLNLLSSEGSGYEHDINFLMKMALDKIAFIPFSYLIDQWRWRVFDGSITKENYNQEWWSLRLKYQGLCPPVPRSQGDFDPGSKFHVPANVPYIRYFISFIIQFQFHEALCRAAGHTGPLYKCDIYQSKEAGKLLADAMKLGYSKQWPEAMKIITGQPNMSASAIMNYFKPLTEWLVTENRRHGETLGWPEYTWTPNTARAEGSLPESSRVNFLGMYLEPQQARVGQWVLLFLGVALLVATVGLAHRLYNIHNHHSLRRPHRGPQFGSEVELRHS

[2] = (§1) Cytotoxicity against BALB/c mouse peritoneal macrophages assessed as reduction in cell viability after 48 hrs by MTT assay; format: cell-based, Peritoneal macrophage; conditions: BALB/c, peritoneal macrophages
Peritoneal macrophage [3] = assay: as §1; format: cell-based; conditions: peritoneal macrophage, 48 h
Erythrocyte = assay: Hemolytic activity against sheep blood erythrocytes at 10^-6 to 10^-4 M after 1 hr; format: ADME, cell-based, Ovis aries
Peritoneal macrophage [4] = assay: Cytotoxicity against BALB/c mouse peritoneal macrophages assessed as reduction in cell viability at 10^-4 M after 48 hrs by MTT assay relative to control; format: cell-based; conditions: 100 µM
Peritoneal macrophage [5] = assay: Cytotoxicity against BALB/c mouse peritoneal macrophages assessed as reduction in cell viability at 5 x 10^-4 M after 48 hrs by MTT assay relative to control; format: cell-based; conditions: 500 µM

| IC50 [1] [µM] | Substance | CC50 at 48 h [2] [µM] | Activity (Peritoneal macrophage [3]) | Activity (Erythrocyte) | Activity (Peritoneal macrophage [4]) [%] | Activity (Peritoneal macrophage [5]) [%] |
| --- | --- | --- | --- | --- | --- | --- |
| 17.5 | H-PPPKVSP-NH2 | 81.9 | Dose-dependent effect | Non-Toxic |  |  |
| 162 | H-WPPPKVS-NH2 | 33600 |  | Non-Toxic | 7.7 | 14.8 |
| 5.51 | H-WPPPKVSP-NH2 | 176 | Dose-dependent effect | Non-Toxic |  |  |
